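Method: 48-hour compound exposure of cells in 96-well plates, five concentrations, linear interpolation of endpoints. TGI is the concentration that stops growth completely.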
What was measured:
Test in all cases: inhibition of tumour cell growth, NCI panel, 48 h
SF-539 CNS = system: SF-539 CNS
MOLT-4 leukemia = system: MOLT-4 leukemia
SF-295 CNS = system: SF-295 CNS
SK-MEL-2 melanoma = system: SK-MEL-2 melanoma
MDA-N = system: MDA-N
MDA-MB-231 breast = system: MDA-MB-231 breast
LOX IMVI melanoma = system: LOX IMVI melanoma
U251 CNS = system: U251 CNS
ACHN renal = system: ACHN renal
OVCAR-5 ovarian = system: OVCAR-5 ovarian
SNB-75 CNS = system: SNB-75 CNS
HOP-62 NSCLC = system: HOP-62 NSCLC
OVCAR-3 ovarian = system: OVCAR-3 ovarian
NCI-H460 lung = system: NCI-H460 lung
OVCAR-4 ovarian = system: OVCAR-4 ovarian
NCI-H226 lung = system: NCI-H226 lung
RPMI-8226 leukemia = system: RPMI-8226 leukemia
EKVX NSCLC = system: EKVX NSCLC
NCI-H23 lung = system: NCI-H23 lung
HCT-15 colon = system: HCT-15 colon
T-47D breast = system: T-47D breast
SW-620 colon = system: SW-620 colon
SK-MEL-28 melanoma = system: SK-MEL-28 melanoma
UO-31 renal = system: UO-31 renal
UACC-62 melanoma = system: UACC-62 melanoma
DU-145 prostate = system: DU-145 prostate
PC-3 prostate = system: PC-3 prostate
CAKI-1 renal = system: CAKI-1 renal
HCT-116 colon = system: HCT-116 colon
IGROV1 ovarian = system: IGROV1 ovarian
786-0 renal = system: 786-0 renal
SK-OV-3 ovarian = system: SK-OV-3 ovarian
A549 NSCLC = system: A549 NSCLC
SNB-19 CNS = system: SNB-19 CNS
NCI-H522 lung = system: NCI-H522 lung
M14 melanoma = system: M14 melanoma
SF-268 CNS = system: SF-268 CNS
HS 578T breast = system: HS 578T breast
NCI/ADR-RES ovarian = system: NCI/ADR-RES ovarian
SN12C renal = system: SN12C renal
RXF 393 renal = system: RXF 393 renal
HOP-92 NSCLC = system: HOP-92 NSCLC
HL-60(TB) leukemia = system: HL-60(TB) leukemia
HCC-2998 colon = system: HCC-2998 colon
BT-549 breast = system: BT-549 breast
HT29 colon = system: HT29 colon
MDA-MB-435 = system: MDA-MB-435
UACC-257 melanoma = system: UACC-257 melanoma
CCRF-CEM leukemia = system: CCRF-CEM leukemia
OVCAR-8 ovarian = system: OVCAR-8 ovarian
COLO 205 colon = system: COLO 205 colon
MALME-3M melanoma = system: MALME-3M melanoma
KM12 colon = system: KM12 colon
K-562 leukemia = system: K-562 leukemia
TK-10 renal = system: TK-10 renal
A498 renal = system: A498 renal
SK-MEL-5 melanoma = system: SK-MEL-5 melanoma
SR leukemia = system: SR leukemia

Work on `COc1c(-c2nc3nc(N4CCN(C)CC4)ccc3[nH]2)cc(OC)c2c1nc(CCl)n2C` yielded a TGI (SF-539 CNS) of 20.7 µM, a TGI (MOLT-4 leukemia) of 58.3 µM and a TGI (SF-295 CNS) greater than 100 µM. For the same compound, the TGI (SK-MEL-2 melanoma) was 29.3 µM, the TGI (MDA-N) was greater than 100 µM and the TGI (MDA-MB-231 breast) was 46.1 µM. The TGI (LOX IMVI melanoma) was 24 µM, the TGI (U251 CNS) was 25.8 µM and the TGI (ACHN renal) was 26.9 µM. It also gave a TGI (OVCAR-5 ovarian) of 56.1 µM, a TGI (SNB-75 CNS) of 29.8 µM and a TGI (HOP-62 NSCLC) of 49.1 µM. It also gave a TGI (OVCAR-3 ovarian) of 81.5 µM, a TGI (NCI-H460 lung) of 52.8 µM and a TGI (OVCAR-4 ovarian) of 44.3 µM. For the same compound, the TGI (NCI-H226 lung) was 66.1 µM, the TGI (RPMI-8226 leukemia) was 43.1 µM and the TGI (EKVX NSCLC) was 39.2 µM. For the same compound, the TGI (NCI-H23 lung) was 47 µM, the TGI (HCT-15 colon) was 90.6 µM and the TGI (T-47D breast) was 38.9 µM. It also gave a TGI (SW-620 colon) of 64.3 µM, a TGI (SK-MEL-28 melanoma) of 71.7 µM and a TGI (UO-31 renal) of 32.8 µM. The TGI (UACC-62 melanoma) was 23.1 µM, the TGI (DU-145 prostate) was 78.2 µM and the TGI (PC-3 prostate) was 28.2 µM. It also gave a TGI (CAKI-1 renal) of 33.2 µM, a TGI (HCT-116 colon) greater than 100 µM and a TGI (IGROV1 ovarian) of 36.8 µM. It also gave a TGI (786-0 renal) greater than 100 µM, a TGI (SK-OV-3 ovarian) of 76.6 µM and a TGI (A549 NSCLC) of 79.6 µM. The TGI (SNB-19 CNS) was greater than 100 µM, the TGI (NCI-H522 lung) was 25.5 µM and the TGI (M14 melanoma) was 33.7 µM. It also gave a TGI (SF-268 CNS) of 55.7 µM, a TGI (HS 578T breast) greater than 100 µM and a TGI (NCI/ADR-RES ovarian) greater than 100 µM. It also gave a TGI (SN12C renal) greater than 100 µM, a TGI (RXF 393 renal) of 33.8 µM and a TGI (HOP-92 NSCLC) of 41.9 µM. It also gave a TGI (HL-60(TB) leukemia) of 53.5 µM, a TGI (HCC-2998 colon) of 31.2 µM and a TGI (BT-549 breast) of 40.4 µM. The TGI (HT29 colon) was 32.9 µM, the TGI (MDA-MB-435) was 38.2 µM and the TGI (UACC-257 melanoma) was 78.3 µM. For the same compound, the TGI (CCRF-CEM leukemia) was 62.1 µM, the TGI (OVCAR-8 ovarian) was 50.5 µM and the TGI (COLO 205 colon) was 31.1 µM. For the same compound, the TGI (MALME-3M melanoma) was 37.5 µM, the TGI (KM12 colon) was 30.8 µM and the TGI (K-562 leukemia) was greater than 100 µM.
With `O=C(C[N+]1(c2ccccc2)CCOCC1)c1ccccc1` the TGI (TK-10 renal) was greater than 100 µM, the TGI (MOLT-4 leukemia) was greater than 100 µM and the TGI (SF-295 CNS) was greater than 100 µM. For the same compound, the TGI (SK-MEL-2 melanoma) was greater than 100 µM, the TGI (MDA-N) was greater than 100 µM and the TGI (MDA-MB-231 breast) was greater than 100 µM. For the same compound, the TGI (LOX IMVI melanoma) was greater than 100 µM, the TGI (U251 CNS) was greater than 100 µM and the TGI (ACHN renal) was greater than 100 µM. For the same compound, the TGI (OVCAR-5 ovarian) was greater than 100 µM, the TGI (SNB-75 CNS) was greater than 100 µM and the TGI (HOP-62 NSCLC) was greater than 100 µM. For the same compound, the TGI (A498 renal) was greater than 100 µM, the TGI (OVCAR-3 ovarian) was greater than 100 µM and the TGI (NCI-H460 lung) was greater than 100 µM. The TGI (OVCAR-4 ovarian) was greater than 100 µM, the TGI (NCI-H226 lung) was greater than 100 µM and the TGI (EKVX NSCLC) was greater than 100 µM. It also gave a TGI (NCI-H23 lung) greater than 100 µM, a TGI (HCT-15 colon) greater than 100 µM and a TGI (T-47D breast) greater than 100 µM. The TGI (SK-MEL-28 melanoma) was 0.0908 µM, the TGI (UO-31 renal) was greater than 100 µM and the TGI (UACC-62 melanoma) was greater than 100 µM. It also gave a TGI (DU-145 prostate) greater than 100 µM, a TGI (PC-3 prostate) greater than 100 µM and a TGI (CAKI-1 renal) greater than 100 µM. The TGI (HCT-116 colon) was greater than 100 µM, the TGI (IGROV1 ovarian) was greater than 100 µM and the TGI (786-0 renal) was greater than 100 µM. The TGI (A549 NSCLC) was greater than 100 µM, the TGI (SNB-19 CNS) was greater than 100 µM and the TGI (NCI-H522 lung) was greater than 100 µM. For the same compound, the TGI (M14 melanoma) was greater than 100 µM, the TGI (SF-268 CNS) was greater than 100 µM and the TGI (HS 578T breast) was greater than 100 µM. It also gave a TGI (NCI/ADR-RES ovarian) greater than 100 µM, a TGI (SN12C renal) greater than 100 µM and a TGI (RXF 393 renal) greater than 100 µM. For the same compound, the TGI (HOP-92 NSCLC) was greater than 100 µM, the TGI (SK-MEL-5 melanoma) was greater than 100 µM and the TGI (HCC-2998 colon) was greater than 100 µM. The TGI (BT-549 breast) was greater than 100 µM, the TGI (HT29 colon) was greater than 100 µM and the TGI (MDA-MB-435) was greater than 100 µM. The TGI (UACC-257 melanoma) was greater than 100 µM, the TGI (SR leukemia) was greater than 100 µM and the TGI (OVCAR-8 ovarian) was greater than 100 µM. The TGI (MALME-3M melanoma) was greater than 100 µM, the TGI (KM12 colon) was greater than 100 µM and the TGI (K-562 leukemia) was greater than 100 µM.
